Test results published in patent publication US20060252918A1, “Use of hepatitis virus (hcv) p7 protein” (priority 2002, published 2006).

Key:
HCV p7 = molecular target: T1, HCV p7 (Hepatitis C virus genotype 1b, UniProt O92972); assay type: cell-based
T1 construct: the p7 protein of HCV is a 63 amino acid protein; expressed in transfected cells; host or cells: Vero cells (T7-driven expression, lipofectamine transfection)
T1 sequence (O92972 747-809 limits assumed): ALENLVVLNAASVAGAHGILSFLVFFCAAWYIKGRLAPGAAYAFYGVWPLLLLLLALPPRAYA

[1] = molecular target: T2, HISp7 (HCV p7 with 6-HIS linker) (Hepatitis C virus genotype 1b, UniProt O92972); assay type: biochemical, hepatitis C virus 1B (J4 isolate)
T2 construct: the p7 protein of HCV is a 63 amino acid protein; GST (N, cleaved yes); made in house; host or cells: E. coli (pGEXHISp7 in pGEX4T1; DH5alpha is named for cloning)
T2 sequence (O92972 747-809 limits assumed): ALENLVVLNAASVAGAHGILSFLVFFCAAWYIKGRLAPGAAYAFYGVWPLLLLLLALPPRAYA

[2] = molecular target: the molecule itself; assay: self-association in HepG2 cell membranes

NC12CC3CC(CC(C3)C1)C2 [amantadine]
inhibition of HA transport facilitated by HCV p7 (HCV p7): HA transport is inhibited | inhibition of ion channel formation by HISp7 [1]: inhibits ion channel formation by HISp7 FIG. 9) in the micromolar range

B1: hepatitis C virus (HCV) p7 protein (other)
chain: ALENLVVLNAASVAGAHGILSFLVFFCAAWYIKGRLAPGAAYAFYGVWPLLLLLLALPPRAYA
notes: mature; p7 expressed alone in hepatocyte-derived (HepG2) cells; The mammalian expression construct is not described; p7 is the 63-residue part of it
binding result [2]: binds
